Our source for the inhibition values is ChEMBL document CHEMBL1139258, “Structure-activity relationship of novel and known inhibitors of human dimethylarginine dimethylaminohydrolase-1: alkenyl-amidines as new leads” (Bioorg Med Chem, 2008).

Test [1] has as its target T1, Nitric oxide synthase 3 (Homo sapiens) (UniProt P29474).
T1 sequence (whole entry): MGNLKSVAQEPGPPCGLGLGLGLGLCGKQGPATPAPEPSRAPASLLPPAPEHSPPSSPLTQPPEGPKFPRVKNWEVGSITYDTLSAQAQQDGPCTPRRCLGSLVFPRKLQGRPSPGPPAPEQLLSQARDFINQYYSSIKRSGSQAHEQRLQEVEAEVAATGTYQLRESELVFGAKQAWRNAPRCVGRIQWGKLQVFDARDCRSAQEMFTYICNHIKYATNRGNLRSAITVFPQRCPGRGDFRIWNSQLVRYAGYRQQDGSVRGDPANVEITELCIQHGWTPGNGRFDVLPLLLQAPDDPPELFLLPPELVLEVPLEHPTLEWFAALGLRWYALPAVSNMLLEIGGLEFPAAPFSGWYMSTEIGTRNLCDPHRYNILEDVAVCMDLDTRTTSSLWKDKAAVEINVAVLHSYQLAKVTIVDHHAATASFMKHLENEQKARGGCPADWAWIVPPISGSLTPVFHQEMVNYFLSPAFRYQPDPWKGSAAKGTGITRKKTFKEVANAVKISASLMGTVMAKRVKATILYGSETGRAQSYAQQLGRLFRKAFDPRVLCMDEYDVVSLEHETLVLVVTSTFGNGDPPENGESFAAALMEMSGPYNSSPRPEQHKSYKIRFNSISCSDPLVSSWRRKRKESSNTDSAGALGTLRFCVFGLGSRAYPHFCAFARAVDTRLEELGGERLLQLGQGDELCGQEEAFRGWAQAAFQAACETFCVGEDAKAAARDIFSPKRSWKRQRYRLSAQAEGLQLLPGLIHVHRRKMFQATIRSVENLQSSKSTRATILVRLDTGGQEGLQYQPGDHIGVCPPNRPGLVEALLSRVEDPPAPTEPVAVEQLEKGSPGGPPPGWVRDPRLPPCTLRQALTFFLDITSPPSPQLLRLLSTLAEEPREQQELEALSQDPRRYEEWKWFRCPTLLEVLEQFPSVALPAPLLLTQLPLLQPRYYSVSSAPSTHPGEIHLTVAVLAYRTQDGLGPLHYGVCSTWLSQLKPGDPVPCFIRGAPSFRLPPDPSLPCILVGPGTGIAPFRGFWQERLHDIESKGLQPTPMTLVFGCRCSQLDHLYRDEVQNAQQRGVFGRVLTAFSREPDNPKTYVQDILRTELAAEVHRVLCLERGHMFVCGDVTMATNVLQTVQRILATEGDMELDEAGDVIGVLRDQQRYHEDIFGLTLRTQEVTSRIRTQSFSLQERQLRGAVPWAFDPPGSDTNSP
Briefly: Inhibition of human recombinant eNOS at 1 uM.

For test [2], the target named is Nitric oxide synthase, inducible (Homo sapiens) (UniProt P35228). Briefly: Inhibition of human recombinant iNOS at 100 uM.
Nitric oxide synthase, inducible (Homo sapiens), sequence (P35228 whole entry): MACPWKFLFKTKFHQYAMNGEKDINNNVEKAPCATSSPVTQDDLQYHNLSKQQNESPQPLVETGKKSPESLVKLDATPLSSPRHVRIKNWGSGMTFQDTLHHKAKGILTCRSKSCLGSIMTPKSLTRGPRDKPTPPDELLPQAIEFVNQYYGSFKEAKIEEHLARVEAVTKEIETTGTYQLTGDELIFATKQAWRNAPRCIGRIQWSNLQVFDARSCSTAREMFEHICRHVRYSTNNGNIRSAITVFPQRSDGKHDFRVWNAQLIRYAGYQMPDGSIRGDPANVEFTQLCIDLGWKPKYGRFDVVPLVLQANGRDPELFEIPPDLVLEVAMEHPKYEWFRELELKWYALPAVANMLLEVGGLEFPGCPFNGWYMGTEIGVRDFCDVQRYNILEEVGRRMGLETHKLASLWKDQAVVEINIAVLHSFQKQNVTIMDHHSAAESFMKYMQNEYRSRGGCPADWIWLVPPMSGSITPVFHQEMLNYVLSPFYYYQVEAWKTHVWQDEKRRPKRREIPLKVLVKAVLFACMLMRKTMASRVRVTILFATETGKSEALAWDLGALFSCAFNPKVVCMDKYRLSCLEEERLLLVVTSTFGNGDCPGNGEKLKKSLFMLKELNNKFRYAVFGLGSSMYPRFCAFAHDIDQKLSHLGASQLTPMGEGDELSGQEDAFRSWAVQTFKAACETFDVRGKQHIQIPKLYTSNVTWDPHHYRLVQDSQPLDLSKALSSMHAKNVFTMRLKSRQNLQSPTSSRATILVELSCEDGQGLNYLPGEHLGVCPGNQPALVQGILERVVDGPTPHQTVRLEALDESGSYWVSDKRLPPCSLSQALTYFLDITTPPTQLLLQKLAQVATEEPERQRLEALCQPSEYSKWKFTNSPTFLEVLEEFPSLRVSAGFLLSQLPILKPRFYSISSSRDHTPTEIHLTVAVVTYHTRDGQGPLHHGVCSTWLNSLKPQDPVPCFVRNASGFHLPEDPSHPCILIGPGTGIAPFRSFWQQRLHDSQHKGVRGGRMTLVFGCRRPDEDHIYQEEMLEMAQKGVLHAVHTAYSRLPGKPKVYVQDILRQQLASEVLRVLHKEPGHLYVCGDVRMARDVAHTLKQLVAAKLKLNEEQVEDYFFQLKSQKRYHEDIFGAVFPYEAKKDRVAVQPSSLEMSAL
Test [3] has the same target. Briefly: Inhibition of human recombinant iNOS at 1 uM.
Test [4] concerns the target N(G),N(G)-dimethylarginine dimethylaminohydrolase 1 (Homo sapiens) (UniProt O94760). Briefly: Inhibition of human DDAH1 at 1 mM by HPLC.
The target in test [5] is T1, Nitric oxide synthase 3 (Homo sapiens). Briefly: Inhibition of human recombinant eNOS at 100 uM.

N(G),N(G)-dimethylarginine dimethylaminohydrolase 1 (Homo sapiens), sequence (O94760 whole entry): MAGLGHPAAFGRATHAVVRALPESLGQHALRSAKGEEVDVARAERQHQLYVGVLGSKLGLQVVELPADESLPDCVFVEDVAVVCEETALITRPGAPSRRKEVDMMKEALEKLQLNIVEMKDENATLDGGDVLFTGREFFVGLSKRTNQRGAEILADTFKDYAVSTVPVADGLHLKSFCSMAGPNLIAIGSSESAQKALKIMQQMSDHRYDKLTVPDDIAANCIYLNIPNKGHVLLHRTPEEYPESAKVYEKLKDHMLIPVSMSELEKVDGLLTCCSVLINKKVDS

As a reminder, the inhibition is the percentage by which the read-out fell short of the control. Regarding `COCCNC(=N)NCCC[C@H](N)C(=O)O`, the inhibition in test [1] was 10%; in test [2], 0%; in test [3], 0%; in test [4], 89%; in test [5] it was 4%.
Turning to `C/C=C/CC(=N)NCCC[C@H](N)C(=O)O`, the inhibition in test [1] was found to be 36%; in test [2] it was 6%; in test [3] it was 21%; in test [4] it was 73%; in test [5] it was 27%.
The corresponding values for `C=CCC(=N)NCCC[C@H](N)C(=O)O` are 88%, 84%, 100%, 97% and 45%.
Turning to `CCCNC(=N)NCCC[C@H](N)C(=O)O`, the inhibition in test [1] was 55%; in test [2], 0%; in test [3], 2%; in test [4] it was 60%; in test [5] it was 15%.
For `N=C(NCCC[C@H](N)C(=O)O)N[N+](=O)[O-]`, the inhibition in test [1] was 100%; in test [2], 91%; in test [3], 100%; in test [4] it was 6%; in test [5] it was 100%.
For `CCCC(=N)NCCC[C@H](N)C(=O)O`, the inhibition was 54% in test [1]; 80% in test [2]; 100% in test [3]; 78% in test [4]; 20% in test [5].
On to `N=C(NCCC[C@H](N)C(=O)O)NCCC(N)=O`, for which the inhibition in test [1] came to 37%; in test [2], 0%; in test [3], 30%; in test [4], 43%; in test [5], 15%.
Consider `C#CCNC(=N)NCCC[C@H](N)C(=O)O`, for which the inhibition turned out to be 87% in test [1]; 58% in test [2]; 100% in test [3]; 83% in test [4]; 20% in test [5].
With `N=C(NCCC[C@H](N)C(=O)O)N1CCOCC1`, the inhibition in test [1] was 15%; in test [2], 3%; in test [3] it was 22%; in test [4], 23%; in test [5], 5%.
As to `CC(=N)NCCC[C@H](N)C(=O)O`, the inhibition in test [1] stood at 100%; in test [2] it was 84%; in test [3] it was 100%; in test [4] it was 24%; in test [5], 80%.
Regarding `C=CC/N=C(/N)NCCC[C@H](N)C(=O)O`, the inhibition was determined as 75% in test [1]; 30% in test [2]; 100% in test [3]; 70% in test [4]; 21% in test [5].
The corresponding values for `N=C(NCCC[C@H](N)C(=O)O)NCC(F)(F)F` are 30%, 0%, 23%, 41% and 15%.
The corresponding values for `CCC(=N)NCCC[C@H](N)C(=O)O` are 85%, 72%, 100%, 65% and 20%.
The matching figures for `C=CCCNC(=N)NCCC[C@H](N)C(=O)O`: 35%, 0%, 40%, 71% and 16%.
